PMC2649378 (European Journal of Pharmacology, 2008)
Where a chain is given by its changes, count along the chain named. “And” between values parts separate entries of the source, which are not always exact repeats. Identical values can stand only once. Like-named read-outs stand apart in the source and are kept apart here.

How the values were obtained:
[1] = target: T1, 5-HT3A receptors (Mus musculus, UniProt P23979); test: Agonist-induced currents in Xenopus oocytes expressing 5-HT3A receptors (OpusXpress electrophysiology); format: cell-based; conditions: for agonist character: 5-HT3A receptors; for Relative efficacy Rmax = Imax drug / Imax 5-HT: maximal concentration; for EC50: holding potential -60 mV; for EC50 relative to Ki: EC50 fold higher than Ki; for Rmax, approximate summary value: discussion, stated for 5-HT3 receptors (5-HT3A and 5-HT3AB) without distinction
T1 construct: expressed in transfected cells; host or cells: Xenopus laevis oocytes injected with cRNA (pGEMHE)
T1 sequence (P23979 24-489): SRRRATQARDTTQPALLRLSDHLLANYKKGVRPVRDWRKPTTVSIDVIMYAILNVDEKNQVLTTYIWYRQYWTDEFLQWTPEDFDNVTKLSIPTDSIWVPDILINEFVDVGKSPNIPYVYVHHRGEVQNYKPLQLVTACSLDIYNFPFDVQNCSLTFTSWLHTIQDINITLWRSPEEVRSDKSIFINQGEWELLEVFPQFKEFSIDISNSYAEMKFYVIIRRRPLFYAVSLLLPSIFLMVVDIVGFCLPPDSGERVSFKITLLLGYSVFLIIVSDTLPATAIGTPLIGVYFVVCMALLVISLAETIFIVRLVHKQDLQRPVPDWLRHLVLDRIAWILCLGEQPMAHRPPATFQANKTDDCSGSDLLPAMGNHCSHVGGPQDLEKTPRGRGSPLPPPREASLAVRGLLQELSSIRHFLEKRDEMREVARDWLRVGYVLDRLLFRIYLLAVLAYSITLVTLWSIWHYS
Method: (§1) Harvested stage V–VI Xenopus oocytes were washed in six changes of ND96 (96 mM NaCl, 2 mM KCl, 1 mM MgCl2, 1.8 mM CaCl2, 5 mM HEPES, pH 7.5), de-folliculated in 1.5 mg ml^− 1 collagenase Type 1A for approximately 2 h. Enzyme treatment was terminated by washing in six changes of ND96 and oocytes were stored in ND96 containing 2.5 mM sodium pyruvate, […] and 0.7 mM theophylline.
(§2) Mouse 5-HT3A (accession number: AY605711) or 5-HT3B (accession number: NM_020274, kindly provided by Ewen Kirkness) subunit cDNAs were cloned into pGEMHE for oocyte expression ([Liman et al., 1992]). cRNA was in vitro transcribed from linearised (NheI) plasmid cDNA template using the mMessage mMachine T7 kit (Ambion, Austin, Texas, USA). Stage V and VI oocytes were injected with 50 ng–100 ng cRNA, and recorded from 1–4 days post-injection. For expression in HEK 293 cells, 5-HT3 receptor subunit cDNAs were cloned into pcDNA3.1 (Invitrogen Ltd., Paisley, UK.). Mutagenesis reactions were performed using the Kunkel method and confirmed by DNA sequencing. Cells were transfected using calcium phosphate precipitation at 80–90% confluency ([Jordan et al., 1996]). Following transfection cells were incubated for 3–4 days before assay.
(§3) Agonist-induced currents were recorded at 22–25 °C from individual oocytes using the OpusXpress system (Molecular Devices Axon Instruments, Union City, CA). […] The holding potential was − 60 mV.

[2] = target: T1, 5-HT3A receptors; test: [3H]granisetron binding to membranes of transfected HEK 293 cells, 5-HT3A receptors; conditions: for Ki relative to the Ki for 5-HT: 5-HT3A receptors, fold greater than 5-HT; for Ki: WT 5-HT3A receptors, HEK 293 membranes, 0.5 nM [3H]granisetron, 4 °C
Method: as §2
(§4) This was undertaken in HEK 293 cells which provide an established and robust method of studying ligand binding. Methods were as previously described ([Lummis et al., 1993]), with minor modifications. Briefly, transfected HEK 293 cells were washed twice with phosphate buffered saline (PBS) at room temperature and scraped into 1 ml of ice-cold HEPES buffer (10 mM, pH 7.4) containing the following proteinase inhibitors (PI): 1 mM EDTA, 50 μg ml^− 1 soybean trypsin inhibitor, 50 μg/ml bacitracin and 0.1 mM phenylmethylsulphonyl fluoride. […] Competition binding was performed using ligand concentrations from 0.1 μM–10 mM. Reactions were incubated for at least 1 h at 4 °C and terminated by vacuum filtration using a Brandel cell harvester onto GF/B filters pre-soaked in 0.3% polyethyleneimine. Radioactivity was determined by scintillation counting using a Beckman LS6000SC (Fullerton, California, USA). Competition binding data were analyzed by iterative curve fitting (GraphPad Prism v3.02, GraphPad Software, San Diego, California, USA), according to the equation: y=Bmin+Bmax−Bmin/1+10^[L]−logIC50 where Bmin is the lowest total binding, Bmax is the maximum specific binding at equilibrium, [L] is the concentration of competing ligand and IC50 is the concentration of competing ligand that blocks half of the specific bound radioligand. Ki values were estimated from IC50 values using the Cheng–Prusoff equation: Ki=IC50/1+[L]/Kd
(§5) where Ki is the equilibrium dissociation constant for binding of the unlabeled antagonist, [L] is the concentration of radioligand and Kd is the equilibrium dissociation constant of the radioligand.

[3] = target: T2, 5-HT3AB receptors (Mus musculus, UniProt P23979+Q9JHJ5); test: [3H]granisetron binding to membranes of transfected HEK 293 cells, 5-HT3AB receptors
T2 construct: expressed in transfected cells; host or cells: Xenopus laevis oocytes injected with cRNA (pGEMHE)
T2 sequence (P23979 24-489): T1 sequence (P23979 24-489)
T2 sequence (Q9JHJ5 22-437): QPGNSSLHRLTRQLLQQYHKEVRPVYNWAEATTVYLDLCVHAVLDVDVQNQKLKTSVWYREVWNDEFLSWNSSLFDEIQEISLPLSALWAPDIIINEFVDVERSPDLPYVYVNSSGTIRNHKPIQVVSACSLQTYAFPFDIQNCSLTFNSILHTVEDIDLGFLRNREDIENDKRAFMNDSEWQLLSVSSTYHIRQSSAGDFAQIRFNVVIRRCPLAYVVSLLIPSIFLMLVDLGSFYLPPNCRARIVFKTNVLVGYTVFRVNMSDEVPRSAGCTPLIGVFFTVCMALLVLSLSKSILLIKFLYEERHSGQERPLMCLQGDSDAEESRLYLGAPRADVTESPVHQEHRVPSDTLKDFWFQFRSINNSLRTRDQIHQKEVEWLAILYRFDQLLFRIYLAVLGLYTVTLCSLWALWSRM
Method: as §2, §4, §5

[4] = target: T2, 5-HT3AB receptors; test: Agonist-induced currents in Xenopus oocytes expressing 5-HT3AB receptors (OpusXpress electrophysiology); format: cell-based; conditions: for agonist character: 5-HT3AB receptors; for Relative efficacy Rmax = Imax drug / Imax 5-HT: maximal concentration; for EC50: holding potential -60 mV
Method: as §1, §2, §3

[5] = target: T1, 5-HT3A receptors; conditions: discussion; compound not tested in this paper; no reference given; cited from earlier work
[6] = target: T3, N128A mutant 5-HT3A receptors (Mus musculus, UniProt P23979, N128A); test: [3H]granisetron competition binding, N128A mutant 5-HT3A receptors
T3 construct: expressed in transfected cells; host or cells: HEK 293 cells (pcDNA3.1); Kunkel mutagenesis
T3 sequence (P23979 24-489 N128A): T1 sequence (P23979 24-489) with N105A
Method: as §2, with “Cells were transfected using calcium phosphate precipitation at 80–90% confluency ([Jordan et al., 1996]). Following transfection cells were incubated for 3–4 days before assay.” left out
(§6) This was undertaken in HEK 293 cells which provide an established and robust method of studying ligand binding. […] Radioactivity was determined by scintillation counting using a Beckman LS6000SC (Fullerton, California, USA). Competition binding data were analyzed by iterative curve fitting (GraphPad Prism v3.02, GraphPad Software, San Diego, California, USA), according to the equation: y=Bmin+Bmax−Bmin/1+10^[L]−logIC50 where Bmin is the lowest total binding, Bmax is the maximum specific binding at equilibrium, [L] is the concentration of competing ligand and IC50 is the concentration of competing ligand that blocks half of the specific bound radioligand. […]

[7] = target: T4, E236A mutant 5-HT3A receptors (Mus musculus, UniProt P23979, E236A); test: [3H]granisetron competition binding, E236A mutant 5-HT3A receptors
T4 construct: expressed in transfected cells; host or cells: HEK 293 cells (pcDNA3.1); Kunkel mutagenesis
T4 sequence (P23979 24-489 E236A): T1 sequence (P23979 24-489) with E213A
Method: as §2, with “Cells were transfected using calcium phosphate precipitation at 80–90% confluency ([Jordan et al., 1996]). Following transfection cells were incubated for 3–4 days before assay.” left out
as §6

[8] = 5-HT3A receptors in Xenopus oocytes
[9] = EC50, 5-HT3A receptors in Xenopus oocytes
[10] = Ki, displacement of [3H]granisetron binding
[11] = 5-HT3AB receptors in Xenopus oocytes
[12] = 5-HT3AB receptors in Xenopus oocytes, read-out: EC50
[13] = read-out: Ki, displacement of [3H]granisetron binding
[14] = 5-HT3AB receptors, HEK 293 membranes, 0.5 nM [3H]granisetron, 4 °C, read-out: Ki, displacement of [3H]granisetron binding

Row | SMILES | agonist character [1] | Relative efficacy Rmax = Imax drug / Imax 5-HT [1, 8] | EC50 [1, 9] | Ki relative to the Ki for 5-HT [2] [fold] | Ki [2, 10] | Ki [3] [µM] | nH (Hill slope) [4, 11] | nH (Hill slope) [1, 8] | Rmax, approximate summary value [1] | agonist character [4] | Relative efficacy Rmax = Imax drug / Imax 5-HT [4, 11] | also measured
1 | NCCc1c[nH]c2ccc(Cl)cc12 [5-ClT, 5-chlorotryptamine] | very weak partial agonist | 0.0037 | 8.1 µM and 8 µM | ~10 | 2.7 ± 0.7 µM | 3.1 ± 1.1 |  |  |  |  |  | EC50 relative to Ki [1]: less than 5 fold
2 | NCCc1c[nH]c2ccc(O)cc12 [5-HT] |  |  |  |  |  |  | 1.4 and 1.4 ± 0.4 |  |  |  |  | 
3 | COc1ccc2[nH]cc(CCN)c2c1 [5-MeOT, 5-methoxytryptamine] |  |  |  | ~300 | 34.9 ± 3 µM | 21.7 ± 2.1 |  |  |  |  |  | activation of 5-HT3 receptors ([1]; concentrations up to 10 mM, examined in 5-HT3A receptors): unable to activate
4 | Cc1ccc2[nH]cc(CCN)c2c1 [5-MeT, 5-methyltryptamine] | very weak partial agonist | 0.0023 | 60 ± 3 µM | ~100 |  | 7.7 ± 1.1 |  |  |  |  |  | EC50 relative to Ki [1]: less than 5 fold
5 | Cc1[nH]c2ccc(O)cc2c1CCN [2-methyl-5-HT] |  |  |  |  |  |  |  |  |  |  |  | Rmax, approximate value [5]: ~0.2
6 | NCCc1c[nH]c2ccc(F)cc12 [5-FT, 5-fluorotryptamine] | partial agonist | 0.64 and 0.64 ± 0.03 | 16 µM | ~10 | 0.8 µM and 0.83 µM | 1.8 ± 0.4 | 1.4 and 1.4 ± 0.3 | 2.4 and 2.4 ± 0.5 | ~0.5 | partial agonist | 0.45 and 0.45 ± 0.04 | EC50 ([4]; EC50, 5-HT3AB receptors in Xenopus oocytes): 27 µM; Ki [6]: 2.43 ± 0.47 µM; Ki [7]: 1.62 ± 0.41 µM
7 | NCCc1c[nH]c2ccccc12 [tryptamine] | partial agonist | 0.15 |  | ~50 |  |  | 1.8 and 1.8 ± 0.5 | 2.5 and 2.5 ± 0.5 | ~0.15 | partial agonist | 0.14 ± 0.02 | EC50 ([1]; 5-HT3A receptors in Xenopus oocytes, mean ± SEM, read-out: pEC50 (converted)): 123 µM; Relative efficacy Rmax = Imax drug / Imax 5-HT ([1]; 5-HT3A receptors in Xenopus oocytes, listed as Tryptamine): 0.15 ± 0.06; EC50 relative to both 5-HT and 5-FT ([1]; EC50 fold higher than 5-HT and 5-FT, both receptor types): 10–100 fold; potency (EC50) relative to 5-HT ([1]; fold less potent / EC50 higher than 5-HT, stated for 5-HT3A and 5-HT3AB receptors together): ~100 fold; EC50 ([4]; 5-HT3AB receptors in Xenopus oocytes, mean ± SEM, read-out: pEC50 (converted)): 60.3 µM; EC50 [4, 12]: 61 µM; Ki [2, 13]: 4.8 ± 0.9 µM; Ki [3, 14]: 15.5 ± 3.5 µM
8 | N=C(N)NC(=N)Nc1cccc(Cl)c1 [mCPBG, m-chlorophenylbiguanide] | partial agonist | 0.74 ± 0.07 |  |  |  |  | 1.6 and 1.6 ± 0.4 | 2.3 and 2.3 ± 0.4 | ~0.8 | full agonist | 0.92 ± 0.09 | EC50 ([1]; 5-HT3A receptors in Xenopus oocytes, read-out: EC50): 0.5 µM; EC50 [4, 12]: 1.1 µM; Ki [2, 13]: 0.01 ± 0.003 µM; Ki [3, 14]: 0.012 ± 0.004 µM
